Drawing on US12448394B2, “Heterocyclic pyrazole derivatives as type III receptor tyrosine kinase inhibitors” (DEVELOPMENT CENTER FOR BIOTECHNOLOGY, priority 2019, dated 2025), this text covers IC50 and inhibition for 22 compounds.

Structures are written as SMILES.

The target of one experiment is T1, MET kinase (Homo sapiens, UniProt P08581).
T1 construct: purchased SignalChem
Nature of the experiment: MET kinase assay (AlphaScreen, counter screen). Type of experiment: biochemical. The following applies: read-out: Ranking of IC50 values, MET. In outline:
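IC50 came from duplicate serial dilutions, with AlphaScreen detection of phosphorylated biotin-poly(Glu4:Tyr1). The reaction used 1 ng recombinant MET, 10 µM ATP […], and MOPS pH 7.0/MgCl2 buffer, ran 45 min at 30 °C, and was quenched with EDTA.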

In experiment [1] the test system is phosphorylation of FLT3 and its down-stream effector STAT5. The experiment is described as follows: Western blotting of p-FLT3 and p-STAT5 in MV4-11 cells. The settings on record: Homo sapiens; at 30 nM treatment, 3 hours, FLT3-ITD positive MV4-11 leukemia cells; read-out: inhibition activity against phosphorylation of FLT3 and its down-stream effector STAT5. Type of experiment: cell-based. How it is done: The potent compounds of formula (I) in EXAMPLE 2 were evaluated, by western blotting assay, for their cellular potencies against phosphorylation of FLT3 and its down-stream effector STAT5 in MV4-11 leukemia cell line with constitutive activation of FLT3 signaling. For western blotting experiments, MV4-11 cells were cultured in IMDM medium containing 0.1% FBS overnight. On the assay day, three million cells were treated with or without compounds for 3 hours in 15 mL tubes. Then, the whole cell lysates were harvested, following extraction by adding 2×SDS Sample Buffer and boiling on hot plate at 105° C. for 15 minutes. The resulting cell lysates were separated by SDS-PAGE electrophoresis and transferred to PVDF membrane. Protein expression was detected using immunoblot with corresponding primary antibody and secondary antibody following the standard procedures. Antibody against p-FLT3 (Tyr-591), anti-rabbit IgG HRP-linked secondary antibody, and anti-mouse IgG HRP-linked secondary antibody were purchased from Cell Signaling Technology. Antibody against p-STAT5 (Tyr-694) was purchased from BD biosciences. Antibody against actin was purchased from R&D system. […] Band intensities of western blot were also quantified by ChemiDoc™ MP Imaging System. Relative intensities of bandscorresponding to drug treatments at a single concentration (30 nM) were compared to the DMSO control group. The percentage (%) inhibition at each drug concentration was calculated using the formula: Percentage(%)inhibition=(1−Relative intensity)×100.

T1 sequence (P08581 25-1390): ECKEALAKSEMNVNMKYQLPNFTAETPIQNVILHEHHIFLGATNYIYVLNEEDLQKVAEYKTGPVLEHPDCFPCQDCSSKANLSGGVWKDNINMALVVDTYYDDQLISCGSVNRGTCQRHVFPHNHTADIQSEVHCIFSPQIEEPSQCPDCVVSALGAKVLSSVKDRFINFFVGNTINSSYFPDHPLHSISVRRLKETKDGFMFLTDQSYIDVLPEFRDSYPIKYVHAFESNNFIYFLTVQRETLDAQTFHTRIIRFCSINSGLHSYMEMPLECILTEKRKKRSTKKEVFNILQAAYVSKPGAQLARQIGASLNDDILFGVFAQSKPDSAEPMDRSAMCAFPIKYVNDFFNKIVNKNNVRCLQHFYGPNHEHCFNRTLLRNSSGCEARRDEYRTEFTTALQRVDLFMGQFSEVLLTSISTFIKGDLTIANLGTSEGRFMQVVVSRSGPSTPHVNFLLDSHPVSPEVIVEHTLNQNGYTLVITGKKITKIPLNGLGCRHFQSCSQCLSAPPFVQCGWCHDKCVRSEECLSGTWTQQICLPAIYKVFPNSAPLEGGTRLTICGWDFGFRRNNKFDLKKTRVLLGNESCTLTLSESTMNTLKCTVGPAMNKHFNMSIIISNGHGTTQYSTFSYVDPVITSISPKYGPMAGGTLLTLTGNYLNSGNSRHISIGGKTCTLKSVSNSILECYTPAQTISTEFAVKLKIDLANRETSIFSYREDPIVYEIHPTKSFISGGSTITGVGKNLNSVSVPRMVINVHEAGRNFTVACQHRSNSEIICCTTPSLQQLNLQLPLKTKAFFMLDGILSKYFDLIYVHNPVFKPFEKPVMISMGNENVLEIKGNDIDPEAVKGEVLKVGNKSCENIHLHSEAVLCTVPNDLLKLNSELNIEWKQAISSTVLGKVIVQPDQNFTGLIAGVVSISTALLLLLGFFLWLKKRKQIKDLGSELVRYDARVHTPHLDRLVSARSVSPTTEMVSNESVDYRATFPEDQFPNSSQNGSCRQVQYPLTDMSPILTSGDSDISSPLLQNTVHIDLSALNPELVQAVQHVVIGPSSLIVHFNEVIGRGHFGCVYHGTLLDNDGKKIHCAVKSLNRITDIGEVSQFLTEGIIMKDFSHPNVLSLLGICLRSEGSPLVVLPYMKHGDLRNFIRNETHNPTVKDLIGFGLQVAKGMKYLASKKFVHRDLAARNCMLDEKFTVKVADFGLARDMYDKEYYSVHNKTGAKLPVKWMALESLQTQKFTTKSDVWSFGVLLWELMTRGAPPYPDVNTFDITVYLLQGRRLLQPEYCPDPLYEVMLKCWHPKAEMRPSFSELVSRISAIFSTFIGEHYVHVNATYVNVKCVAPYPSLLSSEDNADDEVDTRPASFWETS

For `Cn1ncc2ccc(-c3n[nH]c4c3Cc3sc(-c5ccc(S(=O)(=O)N6CCOCC6)cc5)cc3-4)cc21` [Compound 47, 4-((4-(3-(1-methyl-1H-indazol-6-yl)-1,4-dihydro-thieno[2′,3′:4,5]cyclopenta [1,2-c]pyrazol-6-yl)phenyl)sulfonyl) morpholine], at MET kinase, the half-maximal inhibitory concentration (IC50) was > 1 µM. Besides, the inhibition at 0.03 µM in experiment [1] is > 50%.
Take `Cn1ncc2ccc(-c3n[nH]c4c3Cc3sc(-c5cncc(C(=O)N6CCOCC6)c5)cc3-4)cc21` [Compound 31, (5-(3-(1-methyl-1H-indazol-6-yl)-1,4-dihydrothieno[2′,3′:4,5]cyclopenta[1,2-c]pyrazol-6-yl)pyridin-3-yl) (morpholino)methanone]: on MET kinase, the IC50 is > 1 µM. Besides, the inhibition at 0.03 µM in experiment [1] was > 50%.
In the same order, the values of `C[C@@H]1CN(Cc2ccc(-c3cc4c(s3)Cc3c(-c5ccc6cnn(C)c6c5)n[nH]c3-4)cc2)C[C@H](C)O1` [Compound 54, (2S,6R)-2,6-dimethyl-4-(4-(3-(1-methyl-1H-indazol-6-yl)-1,4-dihydro-thieno[2′,3′:4,5]cyclopenta [1,2-c]pyrazol-6-yl)benzyl)morpholine] are > 1 µM and > 50%.
For `Cn1ncc2ccc(-c3n[nH]c4c3Cc3sc(C5=CCN(C(=O)N6CCOCC6)CC5)cc3-4)cc21` [Compound 57, (4-(3-(1-methyl-1H-indazol-6-yl)-1,4-dihydro-thieno[2′,3′:4,5]cyclopenta [1,2-c]pyrazol-6-yl)-3,6-dihydropyridin-1(2H)-yl) (morpholino)methanone] the same measures were > 1 µM and > 50%.
In the same order, the values of `CC(C)n1ncc2ccc(-c3n[nH]c4c3Cc3sc(-c5ccc(CN6CCOCC6)cc5)cc3-4)cc21` [Compound 42, 4-(4-(3-(1-isopropyl-1H-indazol-6-yl)-1,4-dihydro-thieno[2′,3′:4,5]cyclopenta [1,2-c]pyrazol-6-yl)benzyl)morpholine] are > 1 µM and > 50%.
Regarding `Cn1ncc2ccc(-c3n[nH]c4c3Cc3sc(-c5ccc(C(=O)N6CCCC6)cc5)cc3-4)cc21` [Compound 38, (4-(3-(1-methyl-1H-indazol-6-yl)-1,4-dihydro-thieno[2′,3′:4,5]cyclopenta [1,2-c]pyrazol-6-yl)phenyl)(pyrrolidin-1-yl) methanone], the concentration for half-maximal inhibition (IC50) on MET kinase was > 1 µM. In experiment [1], the inhibition at 0.03 µM is > 50%.
Take `C[C@@H]1CN(C(=O)c2ccc(-c3cc4c(s3)Cc3c(-c5ccc6cnn(C)c6c5)n[nH]c3-4)cc2)C[C@H](C)O1` [Compound 19, ((2S,6R)-2,6-dimethyl-morpholino)(4-(3-(1-methyl-1H-indazol-6-yl)-1,4-dihydrothieno[2′,3′:4,5]cyclopenta[1,2-c]pyrazol-6-yl)phenyl)methanone]: the IC50 at MET kinase was > 1 µM. Also, the inhibition at 0.03 µM in experiment [1] is > 50%.
Consider `C[C@@H]1CN(Cc2ccc(-c3cc4c(s3)Cc3c(-c5ccc6cnn(C)c6c5)n[nH]c3-4)cn2)C[C@H](C)O1` [Compound 9, (2S,6R)-2,6-dimethyl-4-((5-(3-(1-methyl-lH-indazol-6-yl)-1,4-dihydro-thieno[2′,3′:4,5]cyclopenta [1,2-c]pyrazol-6-yl)pyridin-2-yl)methyl) morpholine], for which the IC50 at MET kinase is > 1 µM. Moreover, the inhibition at 0.03 µM in experiment [1] is > 50%.
Consider `Cn1ncc2ccc(-c3n[nH]c4c3Cc3sc(C5CCNCC5)cc3-4)cc21` [Compound 96, 3-(1-methyl-1H-indazol-6-yl)-6-(piperidin-4-yl)-1,4-dihydrothieno [2′,3′:4,5]cyclopenta [1,2-c]pyrazole], for which, on MET kinase, the concentration for half-maximal inhibition (IC50) was > 1 µM. The inhibition at 0.03 µM in experiment [1] is > 50%.
For `COc1cc(CN2CCOCC2)ccc1-c1cc2c(s1)Cc1c(-c3ccc4cnn(C)c4c3)n[nH]c1-2` [Compound 29, 4-(3-methoxy-4-(3-(1-methyl-1H-indazol-6-yl)-1,4-dihydrothieno [2′,3′:4,5]cyclopenta[1,2-c]pyrazol-6-yl)benzyl) morpholine] the same measures were > 1 µM and > 50%.
In the same order, the values of `CC(c1ccc(-c2cc3c(s2)Cc2c(-c4ccc5cnn(C)c5c4)n[nH]c2-3)cc1)N1CCOCC1` (centres unmarked) [Compound 20, 4-(1-(4-(3-(1-methyl-1H-indazol-6-yl)-1,4-dihydro-thieno[2′,3′:4,5]cyclopenta [1,2-c]pyrazol-6-yl)phenyl)ethyl)morpholine] are > 1 µM and > 50%.
Take `Cn1ncc2ccc(-c3n[nH]c4c3Cc3sc(-c5ccc(CN6CCOCC6)cc5)cc3-4)cc21` [Compound 8, 4-(4-(3-(1-methyl-1H-indazol-6-yl)-1,4-dihydro-thieno[2′,3′:4,5]cyclopenta [1,2-c]pyrazol-6-yl)benzyl) morpholine]: the IC50 on MET kinase was > 1 µM. The inhibition at 0.03 µM in experiment [1] is > 50%.
In the same order, the values of `Cn1ncc2ccc(-c3n[nH]c4c3Cc3sc(-c5ccc(CN6CCCC6)cc5)cc3-4)cc21` [Compound 99, 3-(1-methyl-1H-indazol-6-yl)-6-(4-(pyrrolidin-1-ylmethyl)phenyl)-1,4-dihydrothieno[2′,3′:4,5] cyclopenta[1,2-c]pyrazole] are > 1 µM and > 50%.
For `Cn1ncc2ccc(-c3n[nH]c4c3Cc3sc(-c5ccc(CCN6CCOCC6=O)cc5)cc3-4)cc21` [Compound 66, 4-(4-(3-(1-methyl-1H-indazol-6-yl)-1,4-dihydro-thieno[2′,3′:4,5]cyclopenta [1,2-c]pyrazol-6-yl)phenethyl)morpholin-3-one] the same measures were > 1 µM and > 50%.
In the same order, the values of `Cn1ncc2ccc(-c3n[nH]c4c3Cc3sc(-c5csc(CN6CCOCC6)c5)cc3-4)cc21` [Compound 52, 4-((4-(3-(1-methyl-1H-indazol-6-yl)-1,4-dihydro-thieno[2′,3′:4,5]cyclopenta [1,2-c]pyrazol-6-yl)thiophen-2-yl)methyl) morpholine] are > 1 µM and > 50%.
On to `Cn1ncc2ccc(-c3n[nH]c4c3Cc3sc(-c5cnc(C(=O)N6CCOCC6)nc5)cc3-4)cc21` [Compound 41, (5-(3-(1-methyl-1H-indazol-6-yl)-1,4-dihydrothieno[2′,3′:4,5]cyclopenta[1,2-c]pyrazol-6-yl)pyrimidin-2-yl) (morpholino)methanone], for which the IC50 on MET kinase was > 1 µM. Also, the inhibition at 0.03 µM in experiment [1] was > 50%.
In the case of `Cn1ncc2ccc(-c3n[nH]c4c3Cc3sc(-c5ccc(CN6CCOCC6)c(F)c5)cc3-4)cc21` [Compound 25, 4-(2-fluoro-4-(3-(1-methyl-1H-indazol-6-yl)-1,4-dihydrothieno[2′,3′:4,5]cyclopenta[1,2-c]pyrazol-6-yl)benzyl)morpholine], on MET kinase, the IC50 was > 1 µM. For the same compound, the inhibition at 0.03 µM in experiment [1] was > 50%.
Regarding `Cn1ncc2ccc(-c3n[nH]c4c3Cc3sc(-c5ccc(CN6CCC(N7CCOCC7)CC6)cc5)cc3-4)cc21` [Compound 80, 4-(1-(4-(3-(1-methyl-1H-indazol-6-yl)-1,4-dihydro-thieno[2′,3′:4,5]cyclopenta [1,2-c]pyrazol-6-yl)benzyl)piperidin-4-yl) morpholine], at MET kinase, the IC50 lay in the range of 0.3 to 1 µM. Further, the inhibition at 0.03 µM in experiment [1] was > 50%.
In the same order, the values of `Cn1ncc2ccc(-c3n[nH]c4c3Cc3sc(-c5cccc(C(=O)N6CCOCC6)c5)cc3-4)cc21` [Compound 37, (3-(3-(1-methyl-1H-indazol-6-yl)-1,4-dihydro-thieno[2′,3′:4,5]cyclopenta [1,2-c]pyrazol-6-yl)phenyl)(morpholino) methanone] are > 1 µM and > 50%.
For `Cn1ncc2ccc(-c3n[nH]c4c3Cc3sc(-c5ccc(CN6CCCCC6)cc5)cc3-4)cc21` [Compound 100, 3-(1-methyl-1H-indazol-6-yl)-6-(4-(piperidin-1-ylmethyl)phenyl)-1,4-dihydrothieno[2′,3′:4,5] cyclopenta[1,2-c]pyrazole] the same measures were 0.1 to 0.3 µM and > 50%.
As to `CN1CCN(C(=O)c2ccc(-c3cc4c(s3)Cc3c(-c5ccc6cnn(C)c6c5)n[nH]c3-4)cc2)CC1` [Compound 15, (4-(3-(1-methyl-1H-indazol-6-yl)-1,4-dihydrothieno[2′,3′:4,5]cyclopenta[1,2-c]pyrazol-6-yl)phenyl)(4-methyl-piperazin-1-yl)methanone], the concentration for half-maximal inhibition (IC50) at MET kinase is > 1 µM. Further, the inhibition at 0.03 µM in experiment [1] is > 50%.
In the same order, the values of `C[C@@H]1COCCN1Cc1ccc(-c2cc3c(s2)Cc2c(-c4ccc5cnn(C)c5c4)n[nH]c2-3)cc1` [Compound 74, (R)-3-methyl-4-(4-(3-(1-methyl-1H-indazol-6-yl)-1,4-dihydrothieno [2′,3′:4,5]cyclopenta [1,2-c]pyrazol-6-yl)benzyl)morpholine] are > 1 µM and > 50%.
